Assay results published in article PMC3793977, “High-Throughput Screening (HTS) and Hit Validation to Identify Small Molecule Inhibitors with Activity against NS3/4A proteases from Multiple Hepatitis C Virus Genotypes” (PLoS ONE, 2013).
pIC50: −log10 of the molar value. “Also recorded” adds a separate entry of the source.

Legend:
full-length NS3/4A = biological target: T1, full-length NS3/4A (Hepatitis C virus genotype 1b, UniProt Q9WMX2); experiment: SPR binding assay (dissociation equilibrium constant KD); conditions: 0–200 µM compound, single referenced with blank (ethanolamine)
T1 construct: wild-type HCV NS3 (HCV polyprotein residues 1027–1657); His-tag (N); made in house
T1 sequence (Q9WMX2 1658-1711): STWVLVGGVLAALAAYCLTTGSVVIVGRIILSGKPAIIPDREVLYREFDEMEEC
T1 sequence (Q9WMX2 1027-1657): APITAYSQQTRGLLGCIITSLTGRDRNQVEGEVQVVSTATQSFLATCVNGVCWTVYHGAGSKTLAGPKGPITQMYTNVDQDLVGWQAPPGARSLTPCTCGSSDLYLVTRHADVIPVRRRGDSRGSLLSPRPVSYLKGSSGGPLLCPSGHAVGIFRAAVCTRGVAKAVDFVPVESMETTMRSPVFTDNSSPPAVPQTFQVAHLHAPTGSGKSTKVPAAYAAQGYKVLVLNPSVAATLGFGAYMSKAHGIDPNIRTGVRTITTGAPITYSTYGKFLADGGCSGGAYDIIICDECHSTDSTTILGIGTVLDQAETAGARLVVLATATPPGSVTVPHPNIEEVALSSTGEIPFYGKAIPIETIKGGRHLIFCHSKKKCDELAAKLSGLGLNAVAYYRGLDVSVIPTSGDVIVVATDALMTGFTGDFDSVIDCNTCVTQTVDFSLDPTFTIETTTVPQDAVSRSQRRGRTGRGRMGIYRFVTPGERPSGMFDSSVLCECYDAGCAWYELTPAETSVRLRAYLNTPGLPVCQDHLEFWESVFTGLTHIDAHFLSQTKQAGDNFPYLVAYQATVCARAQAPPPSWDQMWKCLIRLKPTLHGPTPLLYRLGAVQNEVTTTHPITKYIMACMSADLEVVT
Procedure: The full-length NS3/4A enzyme was prepared in a storage buffer (50 mM HEPES, pH 7.6, 500 mM NaCl, 1 mM DTT, 0.2% Triton X-100, and 20% glycerol) and immobilized on a CM5 sensor chip using standard amine-coupling at 25°C with running buffer HBS-P (10 mM HEPES, 150 mM NaCl, 0.05% surfactant P-20, pH 7.4) using a Biacore T100 instrument. Flow channels 1 and 3 were activated by 1-ethyl-3-(3-dimethylaminopropyl) carbodiimide hydrocholoride (EDC)/N-hydroxy succinimide (NHS) mixture, and the activated surface was blocked by ethanolamine (pH 8.5) as controls. The NS3/4A enzyme was diluted in 10 mM sodium acetate (pH 5.0), and immobilized to flow channel 4 after sensor surface activation with EDC/NHS with a 7 min injection followed by ethanolamine blocking on unoccupied surface area. NS3/4A immobilization level was ∼8,500 response units (RU). An unrelated reference protein (92 kDa) was also immobilized to flow channel 2 as another control to be compared with NS3/4A (74.6 kDa). Fifteen initial hit compounds were prepared as 10 mM DMSO stock solutions. Compound solutions with a series of increasing concentrations (0–200 µM at 1.5-fold dilution) were applied to all four channels at a 10 µL/min flow rate at 25°C. Sensorgrams were analyzed using Biaevaluation software 2.0.3, and response unit difference (ΔRU) values at each concentration were measured during the equilibration phase. Data were either single referenced with a blank (enthanolamine) or double referenced with both blank and reference protein RU values. SigmaPlot 11.0 was used to fit the data to a single rectangular hyperbolic curve to determine KD values. The hyperbola function, y = ymax·x/(KD+x), was used to plot response units and corresponding concentration, where y is the response, ymax is the maximum response, and x is the compound concentration.

[1] = biological target: T2, full-length NS3/4A protease (genotype 1b) (Hepatitis C virus genotype 1b, UniProt Q9WMX2); experiment: biochemical; conditions: for pIC50: purified full-length NS3/4A, genotype 1b wild-type, read-out: IC50 Full-length NS3/4A; for inhibitory activity (SAR, in words): preliminary SAR of compound 12 analogues; for inhibition at 50 µM: read-out: percent inhibition at 50 µM compound concentration
T2 construct: wild-type HCV NS3 (HCV polyprotein residues 1027–1657); His-tag (N); made in house
T2 sequence (Q9WMX2 1658-1711): as the sequence (Q9WMX2 1658-1711) above
T2 sequence (Q9WMX2 1027-1657): as the sequence (Q9WMX2 1027-1657) above
Procedure: All assays were done in duplicate in black 384-well plates (Matrix Technologies). […] 200 nL of 10 mM compound (50 µM final concentrations) were then added and incubated for 5 minutes. Enzyme reactions were initiated with 10 µL of substrate Ac-DE-Dap(QXL520)-EE-Abu-ψ-[COO]AS-C(5-FAMsp)-NH2 (Anaspec) (1 µM final concentration), incubated for 6 minutes, and quenched by 10 µL of 10% SDS as a stop solution. Fluorescence intensity was monitored with a POLARstar OPTIMA microplate reader (BMG LABTECH). Each plate contained a total of 32 positive and 32 negative controls.
A series of compound concentrations (0 to 200 µM final concentration at 2-fold serial dilution) in 100% DMSO were prepared in a 384-well plate. 20 µL of enzyme solution was distributed to wells, and 0.5 µL of varying concentration of compounds were added and incubated for 5 minutes. The enzyme reaction was initiated by adding 5 µL of the substrate, and its activity was continuously monitored for 6 minutes. The IC50 values were calculated by fitting with the Hill equation (1), with OriginPro 8.5 (OriginLab, Inc.) where y is percent inhibition, x is inhibitor concentration, n is the slope of the concentration–response curve (Hill slope), and Vmax is maximal inhibition from two to four independent assays. [drawing 1] (1)

Structure (SMILES)	SPR binding pattern to NS3/4A (full-length NS3/4A)	pIC50 [1]	inhibitory activity (SAR, in words) [1]	inhibition at 50 µM [1]
Cc1ccc(S(=O)(=O)Nc2ccccc2C(=O)Nc2nc3c(Br)cccc3s2)cc1 [Compound 15]	lack of binding; also recorded: did not bind	–	–	–
O=C(Cc1csc(NS(=O)(=O)c2ccccc2)n1)Nc1ccccc1 [Compound 16]	–	4.60	–	–
Cc1cc(Br)ccc1NC(=O)Cc1csc(NS(=O)(=O)c2ccccc2)n1 [Compound 17]	–	4.63	–	–
COc1ccc(S(=O)(=O)Nc2nc(CC(=O)Nc3ccc(Br)c(C)c3)cs2)cc1 [Compound 18]	–	4.84	Moderate activity	–
COc1ccc(S(=O)(=O)Nc2nc(CC(=O)Nc3ccc(Br)cc3C)cs2)cc1 [Compound 19]	–	5.21	Moderate activity	–
Cc1ccc(S(=O)(=O)Nc2nc(CC(=O)Nc3ccc(Br)cc3C)cs2)cc1 [Compound 20]	–	< 4.00	complete activity loss	29.1%
CCc1ccc(NC(=O)Cc2csc(NS(=O)(=O)c3ccc(C)cc3)n2)cc1 [Compound 21]	–	< 4.00	complete activity loss	7.2%
O=C(Cc1csc(NS(=O)(=O)c2ccccc2)n1)Nc1cccc(F)c1 [Compound 22]	–	< 4.00	–	41.7%
O=C(Cc1csc(NS(=O)(=O)c2ccc(Cl)cc2)n1)Nc1cccc(F)c1 [Compound 23]	–	4.62	Moderate activity	–
Cc1cccc(NC(=O)Cc2csc(NS(=O)(=O)c3ccc(Cl)cc3)n2)c1 [Compound 24]	–	4.66	Moderate activity	–
Cc1ccc(NC(=O)Cc2csc(NS(=O)(=O)c3ccc(Cl)cc3)n2)cc1Cl [Compound 25]	–	< 4.00	–	29.2%
Cc1ccc(S(=O)(=O)Nc2ccccc2C(=O)Nc2nc3c(C)ccc(C)c3s2)cc1 [Compound 26]	–	< 4.00	–	0%
Cc1ccc(S(=O)(=O)Nc2ccccc2C(=O)Nc2nc3c(Br)cccc3s2)cc1 [Compound 27]	–	4.81	activity is regained	–
